Assay results reported in patent US20230094146A1, “DEUTERATED THIENOPYRIDINE COMPOUND” (MEDSHINE DISCOVERY INC., priority 2020, published 2023).
Structures can show the parent of a compound that is named as a salt.

Assays:
[1] = Metabolic stability of liver microsomes in vitro; format: in vitro ADME, beagle; conditions: Dog liver microsomes 0.5 mg/mL, compound 1 μM; for CLint scaled at 1 μM: beagle
Protocol: (§1) SD rat, mouse, beagle, cynomolgus monkey and human microsomes were purchased from Corning, Xenotech or BioIVT and stored in a −80° C. freezer.
(§2) 1.2 Nicotinamide adenine dinucleotide phosphate, reduced (NADPH), supplier: Chem-impex international, catalog number: 00616.
(§3) 1.3 Control compounds: testosterone, diclofenac, propafenone.
(§4) Stock solution: 10 mM DMSO solution.
(§5) Working concentration preparation: 100% acetonitrile diluted to 100 μM (organic phase content: 99% ACN, 1% DMSO).
(§6) Prepare two 96-well incubation plates, which were named T60 incubation plate and NCF60 incubation plate, respectively.
(§7) 445 μL of microsomal working solution (liver microsomal protein concentration of 0.56 mg/mL) was added to the T60 incubation plate and NCF60 incubation plate, respectively, and then the above incubation plates were preincubated in a 37° C. water bath for about 10 minutes.
(§8) After the preincubation, 5 μL of test substance or working solution of control compound were added to the T60 incubation plate and NCF60 incubation plate, respectively, and mixed well. The reaction was initiated by adding 50 μL of potassium phosphate buffer to each well of the NCF60 incubation plate; 180 μL of termination solution (acetonitrile solution containing 200 ng/mL tolbutamide and 200 ng/mL labetalol) and 6 μL of NADPH regeneration system working solution were added to the TO termination plate, and 54 μL of sample was removed from the T60 incubation plate to the TO termination plate (TO sample generation). The reaction was initiated by adding 44 μL NADPH regeneration system working solution to each well of the T60 incubation plate. 54 μL of microsomal working solution, 6 μL of NADPH regeneration system working solution and 180 μL of termination solution were added only to the blank plate. Therefore, in the samples of the test or control compounds, the final reaction concentration of compound, testosterone, diclofenac and propafenone was 1 μM, the concentration of liver microsomes was 0.5 mg/mL, and the final concentration of DMSO and acetonitrile in the reaction system were 0.01% (v/v) and 0.99% (v/v), respectively.
(§9) After incubation for an appropriate time (e.g. 5, 10, 20, 30 and 60 minutes), 180 μL of termination solution (acetonitrile solution containing 200 ng/mL tolbutamide and 200 ng/mL labetalol) was added to the sample well of each termination plate, respectively, and then 60 μL of sample was removed from the T60 incubation plate to terminate the reaction.
(§10) All sample plates were shaken well and centrifuged at 3220×g for 20 minutes, then 80 μL of supernatant per well was diluted into 240 μL of purified water for liquid chromatography tandem mass spectrometry analysis.
(§11) All samples were injected for analysis.

[2] = Metabolic stability of liver microsomes in vitro; format: in vitro ADME; conditions: compound 1 μM
Protocol: as §1, §2, §3, §4, §5, §6, §7, §8, §9, §10, §11

VEGFR2 = target: T1, VEGFR2 (Homo sapiens, UniProt P35968); experiment: 33P isotope-labeled kinase activity assay (Reaction Biology Corp); format: biochemical; conditions: 33P-ATP at Km concentration
T1 construct: purchased Reaction Biology Corp
T1 sequence (P35968 20-1356): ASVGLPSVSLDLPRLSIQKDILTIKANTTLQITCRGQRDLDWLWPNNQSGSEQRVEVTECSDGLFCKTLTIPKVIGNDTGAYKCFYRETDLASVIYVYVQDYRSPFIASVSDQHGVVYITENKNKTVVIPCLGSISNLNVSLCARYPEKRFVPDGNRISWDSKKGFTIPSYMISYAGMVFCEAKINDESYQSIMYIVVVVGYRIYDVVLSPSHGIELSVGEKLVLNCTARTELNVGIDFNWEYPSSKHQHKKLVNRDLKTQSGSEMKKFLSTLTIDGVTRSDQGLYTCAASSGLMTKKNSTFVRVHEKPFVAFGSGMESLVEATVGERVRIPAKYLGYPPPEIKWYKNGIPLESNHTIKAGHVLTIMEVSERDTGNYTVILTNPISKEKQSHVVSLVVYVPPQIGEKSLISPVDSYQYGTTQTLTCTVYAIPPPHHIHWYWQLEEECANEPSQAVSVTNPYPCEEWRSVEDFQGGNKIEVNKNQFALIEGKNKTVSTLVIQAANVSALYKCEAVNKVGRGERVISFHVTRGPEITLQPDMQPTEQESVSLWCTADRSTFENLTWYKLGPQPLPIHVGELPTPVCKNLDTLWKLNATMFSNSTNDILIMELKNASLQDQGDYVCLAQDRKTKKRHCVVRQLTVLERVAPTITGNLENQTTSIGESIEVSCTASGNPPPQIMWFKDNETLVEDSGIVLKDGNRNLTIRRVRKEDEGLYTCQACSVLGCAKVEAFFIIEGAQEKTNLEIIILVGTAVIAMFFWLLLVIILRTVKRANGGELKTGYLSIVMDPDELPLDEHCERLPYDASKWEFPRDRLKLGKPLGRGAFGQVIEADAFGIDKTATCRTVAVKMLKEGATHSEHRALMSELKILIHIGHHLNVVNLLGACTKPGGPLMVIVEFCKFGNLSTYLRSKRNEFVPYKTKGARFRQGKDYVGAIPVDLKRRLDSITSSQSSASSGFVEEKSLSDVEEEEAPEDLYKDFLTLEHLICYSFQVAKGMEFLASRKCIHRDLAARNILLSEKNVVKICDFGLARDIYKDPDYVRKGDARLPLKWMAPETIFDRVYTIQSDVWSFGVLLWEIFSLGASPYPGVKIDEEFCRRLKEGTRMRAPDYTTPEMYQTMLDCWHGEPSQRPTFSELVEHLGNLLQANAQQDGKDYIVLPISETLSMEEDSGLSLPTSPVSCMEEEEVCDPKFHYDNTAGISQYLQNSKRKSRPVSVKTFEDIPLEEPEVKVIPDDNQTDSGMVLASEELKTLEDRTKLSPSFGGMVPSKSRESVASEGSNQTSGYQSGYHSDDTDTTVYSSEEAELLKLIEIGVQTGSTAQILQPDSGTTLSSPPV
Protocol: (§12) The ^33P isotope-labeled kinase activity assay (Reaction Biology Corp) was used to determine the IC50 value to evaluate the inhibitory ability of the test compounds to Axl, c-Kit, Mer, DDR2, VEGFR1, VEGFR2, VEGFR3, TrkA, and FLT3.
(§13) Buffer conditions: 20 mM hydroxyethylpiperazine […] (Hepes) (pH 7.5), 10 mM MgCl2, 1 mM ethylene glycol bisaminoethyl ether tetraacetic acid (EGTA), 0.02% polyoxyethylene dodecane Ether (Brij35), 0.02 mg/ml BSA, 0.1 mM Na3VO4, 2 mM dithiothreitol (DTT), 1% DMSO.
(§14) Compound Treatment: Test compounds were dissolved in 100% DMSO and diluted serially to a specific concentration with DMSO by Integra Viaflo Assist.
(§15) Test procedure: The substrate was dissolved in freshly prepared buffer, the tested kinase was added and gently mixed well. The DMSO solution containing the test compound was added to the above well mixed reaction solution using acoustic technique (Echo 550) and incubated at room temperature for […]. The compound concentrations in the reaction solution were 3 μM, 1 μM, 0.333 μM, 0.111 μM, 0.0370 μM, 0.0123 μM, 4.12 nM, 1.37 nM, 0.457 nM, 0.152 nM. After 15 minutes of incubation, ^33P-ATP (activity 0.01 μCi/μL, Km concentration) was added to start the reaction. The reaction was carried out at room temperature for 120 minutes, then radioactivity was detected by filter binding method. The kinase activity data were expressed by comparison between the kinase activity containing the test compound and the kinase activity of the blank group (containing DMSO only), and the IC50 values were obtained by curve fitting using Prism4 software (GraphPad), and the experimental results are shown in Table 1.

VEGFR3 = target: T2, VEGFR3 (Homo sapiens, UniProt P35916); experiment: as above; format: biochemical; conditions: 33P-ATP at Km concentration
T2 construct: purchased Reaction Biology Corp
T2 sequence (P35916 25-1363): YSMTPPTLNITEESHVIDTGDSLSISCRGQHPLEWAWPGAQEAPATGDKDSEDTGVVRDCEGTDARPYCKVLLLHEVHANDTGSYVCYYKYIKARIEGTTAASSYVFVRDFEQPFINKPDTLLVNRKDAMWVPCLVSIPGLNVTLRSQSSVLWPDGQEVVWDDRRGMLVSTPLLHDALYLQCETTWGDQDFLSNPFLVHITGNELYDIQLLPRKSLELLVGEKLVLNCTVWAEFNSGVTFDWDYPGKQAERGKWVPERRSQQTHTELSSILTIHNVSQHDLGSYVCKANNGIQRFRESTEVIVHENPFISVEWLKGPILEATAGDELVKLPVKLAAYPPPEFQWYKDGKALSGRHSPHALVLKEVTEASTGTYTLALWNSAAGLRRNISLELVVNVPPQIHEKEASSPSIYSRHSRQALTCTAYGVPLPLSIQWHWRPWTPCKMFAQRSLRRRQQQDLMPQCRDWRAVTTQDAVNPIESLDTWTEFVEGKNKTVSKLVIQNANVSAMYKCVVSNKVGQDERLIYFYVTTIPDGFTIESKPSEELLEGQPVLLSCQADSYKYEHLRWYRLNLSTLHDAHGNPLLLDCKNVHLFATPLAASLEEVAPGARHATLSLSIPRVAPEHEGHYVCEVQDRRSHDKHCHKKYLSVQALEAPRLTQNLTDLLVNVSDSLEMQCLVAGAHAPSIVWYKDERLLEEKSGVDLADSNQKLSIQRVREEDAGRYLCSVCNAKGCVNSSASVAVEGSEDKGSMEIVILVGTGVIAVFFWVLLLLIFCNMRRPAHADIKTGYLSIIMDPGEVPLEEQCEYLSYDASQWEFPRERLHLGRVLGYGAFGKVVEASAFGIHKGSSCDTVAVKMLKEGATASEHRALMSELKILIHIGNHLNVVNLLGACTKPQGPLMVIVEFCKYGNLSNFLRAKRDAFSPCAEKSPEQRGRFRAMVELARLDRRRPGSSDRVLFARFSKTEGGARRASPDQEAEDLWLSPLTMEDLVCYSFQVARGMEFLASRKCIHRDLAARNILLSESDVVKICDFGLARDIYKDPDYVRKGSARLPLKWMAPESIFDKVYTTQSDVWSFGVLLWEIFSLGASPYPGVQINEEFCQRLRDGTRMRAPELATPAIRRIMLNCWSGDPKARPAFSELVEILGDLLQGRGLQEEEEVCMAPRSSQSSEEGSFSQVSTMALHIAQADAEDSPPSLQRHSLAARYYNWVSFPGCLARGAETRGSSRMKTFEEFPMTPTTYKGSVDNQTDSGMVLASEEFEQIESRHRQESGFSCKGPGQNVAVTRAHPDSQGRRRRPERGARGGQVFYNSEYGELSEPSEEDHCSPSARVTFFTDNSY
Protocol: as §12, §13, §14, §15

VEGFR1 = target: T3, VEGFR1 (Homo sapiens, UniProt P17948); experiment: as above; format: biochemical; conditions: 33P-ATP at Km concentration
T3 construct: purchased Reaction Biology Corp
T3 sequence (P17948 27-1338): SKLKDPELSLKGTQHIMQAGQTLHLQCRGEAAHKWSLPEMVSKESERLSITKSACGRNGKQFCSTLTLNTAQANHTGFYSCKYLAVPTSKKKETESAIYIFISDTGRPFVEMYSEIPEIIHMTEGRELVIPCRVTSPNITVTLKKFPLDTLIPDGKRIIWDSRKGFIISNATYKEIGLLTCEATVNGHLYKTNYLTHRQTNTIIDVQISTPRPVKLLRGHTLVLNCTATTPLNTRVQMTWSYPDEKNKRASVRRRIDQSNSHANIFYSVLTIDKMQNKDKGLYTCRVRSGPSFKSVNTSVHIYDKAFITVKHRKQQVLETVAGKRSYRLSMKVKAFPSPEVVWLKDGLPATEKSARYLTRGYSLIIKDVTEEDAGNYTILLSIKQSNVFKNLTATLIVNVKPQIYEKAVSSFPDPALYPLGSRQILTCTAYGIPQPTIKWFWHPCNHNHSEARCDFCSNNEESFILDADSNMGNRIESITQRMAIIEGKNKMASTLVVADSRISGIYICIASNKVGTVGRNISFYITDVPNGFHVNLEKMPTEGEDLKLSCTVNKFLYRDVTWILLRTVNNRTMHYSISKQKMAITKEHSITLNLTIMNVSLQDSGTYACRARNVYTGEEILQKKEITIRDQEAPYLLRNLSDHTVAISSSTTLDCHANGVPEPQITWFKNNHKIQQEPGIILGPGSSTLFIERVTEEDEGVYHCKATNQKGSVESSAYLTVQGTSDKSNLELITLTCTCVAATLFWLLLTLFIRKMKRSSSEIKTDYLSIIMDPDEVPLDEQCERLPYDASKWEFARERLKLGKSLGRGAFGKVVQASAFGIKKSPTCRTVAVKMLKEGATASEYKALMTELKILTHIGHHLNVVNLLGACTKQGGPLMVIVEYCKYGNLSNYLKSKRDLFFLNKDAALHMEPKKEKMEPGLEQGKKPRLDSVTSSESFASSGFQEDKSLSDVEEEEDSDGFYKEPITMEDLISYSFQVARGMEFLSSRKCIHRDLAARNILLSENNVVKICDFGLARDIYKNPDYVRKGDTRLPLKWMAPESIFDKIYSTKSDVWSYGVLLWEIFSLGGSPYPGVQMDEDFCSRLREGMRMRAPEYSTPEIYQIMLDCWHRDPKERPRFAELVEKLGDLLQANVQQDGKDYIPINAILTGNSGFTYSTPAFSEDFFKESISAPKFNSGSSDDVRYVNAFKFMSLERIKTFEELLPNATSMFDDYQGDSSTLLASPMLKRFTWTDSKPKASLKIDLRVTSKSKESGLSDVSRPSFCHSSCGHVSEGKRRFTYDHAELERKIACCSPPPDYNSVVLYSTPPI
Protocol: as §12, §13, §14, §15

DDR2 = target: T4, DDR2 (Homo sapiens, UniProt Q16832); experiment: as above; format: biochemical; conditions: 33P-ATP at Km concentration
T4 construct: purchased Reaction Biology Corp
T4 sequence (Q16832 22-855): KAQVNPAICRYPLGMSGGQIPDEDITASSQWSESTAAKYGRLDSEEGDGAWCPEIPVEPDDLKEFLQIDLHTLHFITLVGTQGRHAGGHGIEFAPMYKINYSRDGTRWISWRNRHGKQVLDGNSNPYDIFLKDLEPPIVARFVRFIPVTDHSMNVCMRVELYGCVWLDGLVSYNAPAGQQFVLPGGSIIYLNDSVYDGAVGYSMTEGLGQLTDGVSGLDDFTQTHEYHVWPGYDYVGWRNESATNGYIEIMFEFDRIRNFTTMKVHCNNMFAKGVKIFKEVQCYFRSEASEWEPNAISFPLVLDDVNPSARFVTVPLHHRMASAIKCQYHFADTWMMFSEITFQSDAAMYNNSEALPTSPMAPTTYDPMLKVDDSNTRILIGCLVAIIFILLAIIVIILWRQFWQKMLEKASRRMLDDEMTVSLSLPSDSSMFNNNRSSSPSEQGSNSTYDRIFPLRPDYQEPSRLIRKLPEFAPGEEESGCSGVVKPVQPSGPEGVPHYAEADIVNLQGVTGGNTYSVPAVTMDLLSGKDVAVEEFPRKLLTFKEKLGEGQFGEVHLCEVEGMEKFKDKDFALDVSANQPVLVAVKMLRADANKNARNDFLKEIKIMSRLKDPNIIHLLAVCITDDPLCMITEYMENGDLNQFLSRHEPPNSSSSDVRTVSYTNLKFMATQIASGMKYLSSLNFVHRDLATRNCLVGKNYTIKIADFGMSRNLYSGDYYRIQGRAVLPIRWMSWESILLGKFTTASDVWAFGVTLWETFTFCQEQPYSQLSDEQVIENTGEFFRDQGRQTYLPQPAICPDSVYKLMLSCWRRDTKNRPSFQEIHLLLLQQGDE
Protocol: as §12, §13, §14, §15

[3] = Metabolic stability of liver microsomes in vitro; format: in vitro ADME, SD rat; conditions: Rat liver microsomes 0.5 mg/mL, compound 1 μM; for CLint scaled at 1 μM: Sprague-Dawley
Protocol: as §1, §2, §3, §4, §5, §6, §7, §8, §9, §10, §11

[4] = Metabolic stability of liver microsomes in vitro; format: in vitro ADME, cynomolgus monkey; conditions: Monkey liver microsomes 0.5 mg/mL, compound 1 μM
Protocol: as §1, §2, §3, §4, §5, §6, §7, §8, §9, §10, §11

[5] = Pharmacokinetic evaluation in rats after oral administration; format: in vivo; conditions: Sprague-Dawley, plasma, 5 mg/kg, SD rat (male), 5 mpk
Protocol: Testing the pharmacokinetic properties of the compounds of the present disclosure in rats.
The pharmacokinetic characteristics of the compounds in rodents after oral administration were tested by standard protocols. In the experiment, the candidate compounds were formulated into a clarified solution and given to rats for oral administration. The vehicle was 10% NMP/40% PEG400/[…]. Whole blood samples were collected within 24 hours (0.0833, 0.25, 0.5, 1, 2, 4, 6, 8, 24 h), and all blood samples were added to the plastic centrifuge tubes pre-labeled with 0.5 M K2-EDTA anticoagulant.

[6] = Human liver microsomes 0.5 mg/mL
[7] = Mouse liver microsomes 0.5 mg/mL

| 60 min remaining [1] [%] | CLint scaled at 1 μM [1] [mL/min/kg] | CLint scaled at 1 μM [2, 6] [mL/min/kg] | 60 min remaining [2, 6] [%] | CLint scaled at 1 μM [2, 7] [mL/min/kg] | 60 min remaining [2, 7] [%] | IC50 (VEGFR2) [nM] | IC50 (VEGFR3) [nM] | IC50 (VEGFR1) [nM] | IC50 (DDR2) [nM] | 60 min remaining [3] [%] | CLint scaled at 1 μM [3] [mL/min/kg] | CLint scaled at 1 μM [4] [mL/min/kg] | 60 min remaining [4] [%] | AUC(0-t) [5] [µM·h] | Cmax [5] [nM] | Tmax [5] [h] | Compound |
| --- | --- | --- | --- | --- | --- | --- | --- | --- | --- | --- | --- | --- | --- | --- | --- | --- | --- |
| 5.4 | 139 | < 8.6 | 96.4 | 301 | 11.3 | 2.75 | 2.13 | 7.16 | 1.14 | 26.2 | 78.1 | 19.7 | 59.7 | – | – | – | [2H]C([2H])([2H])OC([2H])([2H])CNCc1ccc(-c2cc3nccc(Oc4ccc(NC(=O)C5(C(=O)Nc6ccc(F)cc6)CC5)cc4F)c3s2)nc1 [Hydrochloride of 002] |
| 2.6 | 172 | 10.6 | 71.5 | 460 | 3.30 | – | – | – | – | 4.2 | 192 | 42.8 | 38.5 | 4.79 | 801 | 3 | COCCNCc1ccc(-c2cc3nccc(Oc4ccc(NC(=O)C5(C(=O)Nc6ccc(F)cc6)CC5)cc4F)c3s2)nc1 [Sitravatinib, reference compound] |
| 4.9 | 144 | < 8.6 | 87.1 | 321 | 9.5 | 2.16 | 2.82 | 10.5 | 0.79 | 28.6 | 71.3 | 22.5 | 55.9 | 6.65 | 930 | 1.25 | [2H]C([2H])([2H])OCCNCc1ccc(-c2cc3nccc(Oc4ccc(NC(=O)C5(C(=O)Nc6ccc(F)cc6)CC5)cc4F)c3s2)nc1 [Trifluoroacetate of 001] |
